Assay [1] has as its system Cells stably expressing Amyloid Precursor Protein (APP). As to the kind of experiment: In vitro BACE cell-based assay (HEK cell assay): Aβ40 in conditioned medium by sandwich ELISA. The following applies: Aβ40 in conditioned medium after 24 h incubation. As for the experimental part: In Vitro BACE Cell-Based Assay:
The cell-based assay measures inhibition or reduction of Aβ40 in conditioned medium of test compound treated cells expressing amyloid precursor protein.
Cells stably expressing Amyloid Precursor Protein (APP) were plated at a density of 40K cells/well in 96 well plates (Costar). The cells were cultivated for 24 hours at 37° C. and 5% CO2 in DMEM supplemented with 10% FBS. The test compounds were then added to cells in 10-point dose response concentrations with the starting concentration being either 100 μM or 10 μM. The compounds were diluted from stock solutions in DMSO and the final DMSO concentration of the test compounds on cells was 0.1%. After 24 h of incubation with the test compounds the supernatant conditioned media was collected and the Aβ 40 levels were determined using a sandwich ELISA. The IC50 of the compound was calculated from the percent of control or percent inhibition of Aβ 40 as a function of the concentration of the test compound.
The sandwich ELISA to detect Aβ 40 was performed in 96 well microtiter plates, which were pre-treated with goat anti-rabbit IgG (Pierce). The capture and detecting antibody pair that were used to detect Aβ 40 from cell supernatants were affinity purified pAb40 (Biosource) and biotinylated 6E10 (Signet Labs Inc.), respectively. The optimal concentration for the pAb40 antibody was 3 μg/ml in Superblock/TBS (Pierce) that was supplemented with 0.05% Tween 20 (Sigma). Optimal concentration for the detection antibody 6E10-biotinylated was 0.5 μg/ml in Superblock/TBS (Pierce) that had been supplemented with 2% normal goat serum and 2% normal mouse serum.
Cellular supernatants were incubated with the capture antibody for 3 h at 4° C., followed by 3 wash steps in TBS-tween (0.05%). The detecting antibody incubation was for 2 h at 4° C., again followed by the wash steps as described previously. The final readout of the ELISA is Time-Resolved Fluorescence (counts per minute) using Delfia reagents Streptavidin-Europium and Enhancement solutions (Perkin Elmer) and the Victor 2 multilabel counter (Perkin Elmer).
Of the compounds tested, in-the cell-based assay, data for each of Examples 33-156 is provided in Table 1 and Examples 208-246 are provided in Table 4.

The next assay has as its target BACE1 (Homo sapiens, UniProt P56817). The experiment in a line: In vitro enzymatic BACE FRET (fluorescence resonance energy transfer) assay. Type of assay: biochemical. As for the experimental part: In Vitro Enzymatic BACE FRET (Fluorescence Resonance Energy Transfer) Assay (Enzyme Assay Data in Table 1)
The assay buffer used in this screen is 0.05 M acetate, pH 4.2, 10% DMSO final, 100 uM genapol (which is a nonionic detergent, below its Critical Micelle Concentration). […] The assay is effectively started by the addition of FRET substrate (50 nM) and the combination is incubated for one hour. The FRET assay is terminated with by addition of Tris buffer, which raises the pH to neutrality, and the fluorescence is determined. The FRET substrate is a peptide with commercially available fluorophore and quencher, on opposite sides of the BACE cleavage site. Proteolytic cleavage of the FRET substrate releases quenching of fluorescence (excitation […] and emission […]).

The record followed here is US8633315B2, “Substituted hydroxyethyl amine compounds as beta-secretase modulators and methods of use” (Amgen Inc., priority 2007, dated 2014).

As usually defined, the IC50 is the point on the concentration scale where inhibition reaches its midpoint.

Chain of BACE1 (P56817 46-501, species assumed): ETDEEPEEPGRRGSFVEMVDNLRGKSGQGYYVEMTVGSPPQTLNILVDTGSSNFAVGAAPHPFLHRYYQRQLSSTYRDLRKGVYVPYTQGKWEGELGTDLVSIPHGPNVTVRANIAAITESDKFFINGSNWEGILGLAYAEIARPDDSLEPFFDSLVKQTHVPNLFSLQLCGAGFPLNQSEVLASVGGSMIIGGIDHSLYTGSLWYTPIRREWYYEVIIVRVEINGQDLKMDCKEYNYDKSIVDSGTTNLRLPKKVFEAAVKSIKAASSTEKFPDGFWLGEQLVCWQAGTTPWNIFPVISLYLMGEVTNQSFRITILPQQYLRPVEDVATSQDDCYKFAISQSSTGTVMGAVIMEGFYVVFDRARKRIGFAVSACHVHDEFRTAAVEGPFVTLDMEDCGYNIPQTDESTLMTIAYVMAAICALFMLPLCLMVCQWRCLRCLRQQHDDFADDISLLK

Turning to `C=CC[C@H](NC(=O)COC)[C@H](O)CN[C@H]1CC2(CCC2)Oc2ccc(CC(C)C)cc21` [Example 35, N-((1S)-1-((1R)-1-hydroxy-2-(((4S)-6-(2-methylpropyl)-3,4-dihydrospiro[chromene-2,1′-cyclobutan]-4-yl)amino)ethyl)-3-buten-1-yl)-2-(methyloxy)acetamide], the IC50 in assay [1] (Homo sapiens, HEK293, 24 h) amounted to 0.624 µM; on BACE1, 0.104 µM. For the molecule `C#CC[C@H](NC(=O)c1cc(F)cc(F)c1)[C@H](O)CN[C@H]1CC2(CCC2)Oc2ncc(CC(C)(C)C)cc21` [Example 36, N-((1S)-1-((1R)-2-(((4′S)-6′-(2,2-dimethylpropyl)-3′,4′-dihydrospiro[cyclobutane-1,2′-pyrano[2,3-b]pyridin]-4′-yl)amino)-1-hydroxyethyl)-3-butyn-1-yl)-3,5-difluorobenzamide], the IC50 was 4.17 µM in assay [1] (Homo sapiens, HEK293, 24 h) and 0.228 µM on BACE1.

As for `C#CCC(NC(=O)C1CCC(=O)O1)C(O)CNC1CC2(CCC2)Oc2ncc(CC(C)(C)C)cc21` [Example 37, (2R)-N-((1S)-1-((1R)-2-(((1s,3S,4′S)-6′-(2,2-dimethylpropyl)-3′,4′-dihydrospiro[cyclobutane-1,2′-pyrano[2,3-b]pyridin]-4′-yl)amino)-1-hydroxyethyl)-3-butyn-1-yl)-5-oxotetrahydro-2-furancarboxamide], the IC50 turned out to be 0.133 µM in assay [1] (Homo sapiens, HEK293, 24 h) and 0.018 µM on BACE1. For `C=CC[C@H](NC(C)=O)[C@H](O)CN[C@H]1CC2(CCC2)Oc2ncc(CC(C)C)cc21` [Example 38, N-((1S)-1-((1R)-1-hydroxy-2-(((4′S)-6′-(2-methylpropyl)-3′,4′-dihydrospiro[cyclobutane-1,2′-pyrano[2,3-b]pyridin]-4′-yl)amino)ethyl)-3-buten-1-yl)acetamide], the 50% inhibitory concentration (IC50) in assay [1] (Homo sapiens, HEK293, 24 h) was 0.085 µM; at BACE1, 0.081 µM.

For the molecule `C=CC[C@H](NC(=O)C1CC(=O)N(C2CCC2)C1)[C@H](O)CN[C@H]1CC2(CCC2)Oc2ncc(CC(C)C)cc21` (stereo partly drawn) [Example 40, 1-cyclobutyl-N-((1S)-1-((1R)-1-hydroxy-2-(((4′S)-6′-(2-methylpropyl)-3′,4′-dihydrospiro[cyclobutane-1,2′-pyrano[2,3-b]pyridin]-4′-yl)amino)ethyl)-3-buten-1-yl)-5-oxo-3-pyrrolidinecarboxamide], the IC50 in assay [1] (Homo sapiens, HEK293, 24 h) amounted to 0.006 µM; at BACE1, 0.006 µM. `C=CC[C@H](NC(=O)COC)[C@H](O)CNC1CC2(CC(F)(F)C2)Oc2ncc(CC(C)(C)C)cc21` (stereo partly drawn) [Example 41, N-((1S)-1-((1R)-2-((6′-(2,2-dimethylpropyl)-3,3-difluoro-3′,4′-dihydrospiro[cyclobutane-1,2′-pyrano[2,3-b]pyridin]-4′-yl)amino)-1-hydroxyethyl)-3-buten-1-yl)-2-(methyloxy)acetamide]: the IC50 in assay [1] (Homo sapiens, HEK293, 24 h) is 0.127 µM; on BACE1, 0.042 µM.

As for `C=CC[C@H](NC(=O)[C@@H](C)OC)[C@H](O)CN[C@H]1CC2(CCC2)Oc2ncc(CC(C)C)cc21` [Example 42, (2R)-N-((1S)-1-((1R)-1-hydroxy-2-(((4′S)-6′-(2-methylpropyl)-3′,4′-dihydrospiro[cyclobutane-1,2′-pyrano[2,3-b]pyridin]-4′-yl)amino)ethyl)-3-buten-1-yl)-2-(methyloxy)propanamide], the half-inhibitory concentration (IC50) in assay [1] (Homo sapiens, HEK293, 24 h) amounted to 0.269 µM; at BACE1, 0.099 µM. For `CCC[C@H](NC(C)=O)[C@H](O)CN[C@H]1CC2(CCC2)Oc2ncc(CC(C)(C)C)cc21` [Example 43, N-((1S)-1-((1R)-2-(((4′S)-6′-(2,2-dimethylpropyl)-3′,4′-dihydrospiro[cyclobutane-1,2′-pyrano[2,3-b]pyridin]-4′-yl)amino)-1-hydroxyethyl)butyl)acetamide], the IC50 in assay [1] (Homo sapiens, HEK293, 24 h) came out at 0.167 µM; at BACE1 it was 0.083 µM. For `C=CC[C@H](NC(C)=O)[C@H](O)CN[C@H]1CC2(CCC2)Oc2c1cc(CC(C)(C)C)nc2N(C)C` [Example 45, N-((1S)-1-((1R)-2-(((4′S)-8′-(dimethylamino)-6′-(2,2-dimethylpropyl)-3′,4′-dihydrospiro[cyclobutane-1,2′-pyrano[2,3-c]pyridin]-4′-yl)amino)-1-hydroxyethyl)-3-buten-1-yl)acetamide], the IC50 in assay [1] (Homo sapiens, HEK293, 24 h) was 6.34 µM; at BACE1, 0.905 µM. On the same counts, the results for `C=CC[C@H](NC(C)=O)[C@H](O)CN[C@H]1CC2(CCC2)Oc2c1cc(CC(C)(C)C)nc2N1CCCC1` [Example 46, N-((1S)-1-((1R)-2-(((4′S)-6′-(2,2-dimethylpropyl)-8′-(1-pyrrolidinyl)-3′,4′-dihydrospiro[cyclobutane-1,2′-pyrano[2,3-c]pyridin]-4′-yl)amino)-1-hydroxyethyl)-3-buten-1-yl)acetamide] are 0.183 µM and 0.373 µM.

Take `C=CC[C@H](NC(=O)COC)[C@H](O)CN[C@H]1CC2(CCC2)Oc2c1cc(CC(C)(C)C)nc2N(C)C` [Example 48, N-((1S)-1-((1R)-2-(((4′S)-8′-(dimethylamino)-6′-(2,2-dimethylpropyl)-3′,4′-dihydrospiro[cyclobutane-1,2′-pyrano[2,3-c]pyridin]-4′-yl)amino)-1-hydroxyethyl)-3-buten-1-yl)-2-(methyloxy)acetamide]: the IC50 amounted to 2.82 µM in assay [1] (Homo sapiens, HEK293, 24 h) and 0.365 µM on BACE1. For the molecule `CC=CC[C@H](NC(=O)[C@H]1CCC(=O)O1)[C@H](O)CN[C@H]1C[C@]2(C[C@H](F)C2)Oc2ncc(CC(C)(C)C)cc21` [Example 108, (2R)-N-((1S)-1-((1R)-2-(((1s,3S,4′S)-6′-(2,2-dimethylpropyl)-3-fluoro-3′,4′-dihydrospiro[cyclobutane-1,2′-pyrano[2,3-b]pyridin]-4′-yl)amino)-1-hydroxyethyl)-3-penten-1-yl)-5-oxotetrahydro-2-furancarboxamide], in assay [1], the half-inhibitory concentration (IC50) is 0.095 µM. `C=CCC(NC(=O)COC)C(O)CNC1CC2(CC(C#N)C2)Oc2ncc(CC(C)(C)C)cc21` [Example 113, N-((1S)-1-((1R)-2-(((1r,3S,4′S)-3-cyano-6′-(2,2-dimethylpropyl)-3′,4′-dihydrospiro[cyclobutane-1,2′-pyrano[2,3-b]pyridin]-4′-yl)amino)-1-hydroxyethyl)-3-buten-1-yl)-2-(methyloxy)acetamide]: at BACE1, the half-inhibitory concentration (IC50) amounted to 0.302 µM.

For the molecule `C=CCC(NC(C)=O)C(O)CNC1CC2(CC(C#N)C2)Oc2ncc(CC(C)(C)C)cc21` [Example 114, N-((1S)-1-((1R)-2-(((1r,3S,4′S)-3-cyano-6′-(2,2-dimethylpropyl)-3′,4′-dihydrospiro[cyclobutane-1,2′-pyrano[2,3-b]pyridin]-4′-yl)amino)-1-hydroxyethyl)-3-buten-1-yl)acetamide], the IC50 on BACE1 was determined as 0.378 µM.

As for `C=CC[C@H](NC(C)=O)[C@H](O)CN[C@H]1CC2(CCC2)Oc2ncc(C[C@H](C)C(F)(F)F)cc21` [Example 122, N-((1S)-1-((1R)-1-hydroxy-2-(((4′S)-6′-((2S)-3,3,3-trifluoro-2-methylpropyl)-3′,4′-dihydrospiro[cyclobutane-1,2′-pyrano[2,3-b]pyridin]-4′-yl)amino)ethyl)-3-buten-1-yl)acetamide], at BACE1, the concentration for half-maximal inhibition (IC50) is 0.322 µM. For the molecule `C=CC[C@H](NC(=O)COC)[C@H](O)CN[C@H]1CC2(CCC2)Oc2ncc(C[C@H](C)C(F)(F)F)cc21` [Example 123, N-((1S)-1-((1R)-1-hydroxy-2-(((4′S)-6′-((2S)-3,3,3-trifluoro-2-methylpropyl)-3′,4′-dihydrospiro[cyclobutane-1,2′-pyrano[2,3-b]pyridin]-4′-yl)amino)ethyl)-3-buten-1-yl)-2-(methyloxy)acetamide], the IC50 at BACE1 came out at 0.177 µM. In the case of `C=CC[C@H](NC(=O)COC)[C@H](O)CN[C@H]1CC2(CCC2)Oc2ncc(C[C@@H](C)C(F)(F)F)cc21` [Example 124, N-((1S)-1-((1R)-1-hydroxy-2-(((4′S)-6′-((2R)-3,3,3-trifluoro-2-methylpropyl)-3′,4′-dihydrospiro[cyclobutane-1,2′-pyrano[2,3-b]pyridin]-4′-yl)amino)ethyl)-3-buten-1-yl)-2-(methyloxy)acetamide], the IC50 on BACE1 is 0.412 µM.
